In publication PMC6934184, “Selective DNA-PKcs inhibition extends the therapeutic index of localized radiotherapy and chemotherapy” (The Journal of Clinical Investigation, 2019):

Molecular target: T1, STK4 (MST1) (Homo sapiens, UniProt Q13043)
T1 construct: purchased Thermo Fisher Scientific (Life Technologies) SelectScreen
Test: SelectScreen Z'LYTE
Format: biochemical
Method in brief: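 Percent values come from Thermo SelectScreen profiling of NU5455, combining activity and binding assays. CSF1R was run in Z'LYTE format at Km app ATP, and CAMK1 in Adapta format with ATP listed at 10.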

T1 sequence (Q13043 whole entry): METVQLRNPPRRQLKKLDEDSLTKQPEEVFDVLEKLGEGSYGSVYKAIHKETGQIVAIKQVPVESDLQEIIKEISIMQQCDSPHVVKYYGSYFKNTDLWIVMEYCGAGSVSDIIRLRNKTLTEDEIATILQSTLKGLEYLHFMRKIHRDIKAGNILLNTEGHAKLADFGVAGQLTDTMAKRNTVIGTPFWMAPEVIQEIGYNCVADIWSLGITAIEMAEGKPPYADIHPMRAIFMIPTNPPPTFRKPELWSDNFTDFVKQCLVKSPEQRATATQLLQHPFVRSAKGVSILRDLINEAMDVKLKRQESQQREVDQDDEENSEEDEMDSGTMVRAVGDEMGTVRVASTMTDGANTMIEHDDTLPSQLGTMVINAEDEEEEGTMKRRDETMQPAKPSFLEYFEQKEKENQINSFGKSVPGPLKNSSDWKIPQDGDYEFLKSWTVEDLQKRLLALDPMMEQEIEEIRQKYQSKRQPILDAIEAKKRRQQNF

With `CN(C(=O)CN1CCOCC1)c1ccc2sc3c(-c4cccc5c(=O)cc(N6CC7CCC(C6)O7)oc45)cccc3c2c1` [NU5455] the inhibition at 1 µM was -4.4%.
